23 compounds from patent US5936097A, “4,9-ethano-benzo(F)isoindole derivatives as farnesyl transferase inhibitors” (Rhone-Poulenc Rorer, S.A., priority 1995, dated 1999) can be followed below.

The first experiment addresses T1, human farnesyl transferase (Homo sapiens, UniProt P49354+P49356).
T1 construct: human farnesyl transferase purified from THP1 cell cultures; endogenous in cells; host or cells: THP1 cell cultures (enzyme purified from the cells)
The experiment in a line: inhibition of farnesyl transferase ((3H) farnesyl transfer from (3H) FPP to p21 H-ras). It is filed as biochemical.
Conditions: not given
As for the experimental part: Farnesyl transferase activity is determined by the amount of (^3 H) farnesyl transferred from (^3 H) farnesylpyrophosphate [(^3 H) FPP] to the p21 H-ras protein. The standard reaction mixture is composed, for a final volume of […], of 50 mM Tris-HCl, 5 mM MgCl2, 5 mM dithiotreitol, 0.2% octyl b-D-glucopyranoside, 200 picomol p21 H-ras, 4.5 picomol (^3 H) FPP (activity 61000 dpm/picomol).
Reaction is initiated by adding approximately 5 ng of human farnesyl transferase purified from THP1 cell cultures. After incubation for 20 minutes at 37° C. in a microtitration plate containing 96 1-cm^3 wells per plate (Titer Plate®, Beckman), the reaction is stopped by adding 0.4 cm^3 of 0.1% SDS in methanol at 0° C. The mixture is then treated with 0.4 cm^3 of 30% trichloroacetic® acid (TCA) in methanol. The plates are left in ice for 1 hour. The precipitated contents are then retained on Filtermat®, Pharmacia), glass® fibre membranes with the filtration unit (Combi Cell Harvester®, Skatron), and rinsed with 6% trichloroacetic acid in distilled water. The membranes are dried in a microwave oven, then impregnated with scintillation medium by melting of Meltilex® (Pharmacia) under hot air, and lastly counted in cpm in a b-Plate counter® (LKB). Each test is repeated 3 times.
The unit of activity is defined as 1 picomole of (^3 H) FPP transferred to p21 H-ras in 20 minutes.
The percentage inhibition values are obtained by comparison of the tests with and without inhibitor after deduction of blanks, the IC50 values being measured on the basis of the inhibitions obtained with 9 different concentrations using Enzfitter® or Grafit® software.
As to `C=C(C(=O)N1C[C@@H]2[C@]3(c4ccccc4)CC[C@@H](c4ccccc43)[C@]2(C(=O)O)C1)c1ccccc1OC` (relative stereo) [Example 38, (3aRS,4SR,9SR,9aRS)-4,9-ethano-2-[2-(2-methoxyphenyl)prop-2-en-1-oyl]-9-phenyl-2,3,3a,4,9,9a-hexahydro-1H-benzo[f]isoindole-3a-carboxylic acid], the IC50 – broadly, the concentration at which inhibition is half-maximal – was 0.1 µM.
On the same count and under the same terms, as for `CCOc1ccccc1CC(=O)N1C[C@H]2[C@@]3(c4ccccc4)CC[C@H](c4ccccc43)[C@@]2(C(=O)O)C1` [Example 75], the figure is 0.37 µM; as for `COc1ccccc1C(=O)C(=O)N1C[C@@H]2[C@]3(c4ccccc4)CC[C@@H](c4ccccc43)[C@]2(C(=O)O)C1` (racemic) [Example 42, (3aRS,4SR,9SR,9aRS)-4,9-ethano-2-[2-(2-methoxyphenyl)-2-oxoacetyl]-9-phenyl-2,3,3a,4,9,9a-hexahydro-1H-benzo[f]isoindole-3a-carboxylic acid], 8.45 µM; as for `COc1ccccc1OC(=O)N1C[C@H]2[C@@]3(c4ccccc4)CC[C@H](c4ccccc43)[C@@]2(C(=O)O)C1` (relative stereo) [Example 27, (3aRS, 4SR, 9SR, 9aRS)-4,9-ethano-2-(2-methoxyphenyl)oxycarbonyl-9-phenyl-1,2,3,3a,9,9a-hexahydro-1H-benzo[f]isoindole-3a-carboxylic acid], 5.8 µM.
On to `COc1ccccc1[C@H](C)C(=O)N1CC2C3(c4ccccc4)CCC(c4ccccc43)C2(C(=O)O)C1` (single isomer, unassigned) [Example 34], for which the IC50 is 0.59 µM.
Still for that read-out and setting: as for `COc1ccccc1CC(=O)N1C[C@H]2[C@@]3(c4ccccc4)CC[C@H](c4ccccc43)[C@@]2(C(=O)O)C1` (relative stereo) [Example 2, (3aRS, 4SR, 9SR, 9aRS)-4,9-ethano-2-(2-methoxyphenyl)acetyl-9-phenyl-2,3,3a,4,9,9a-hexahydro-1H-benzo[f]isoindole-3a-carboxylic acid], the figure is 0.31 µM; as for `COC(=O)[C@]12CN(C(=O)Cc3ccccc3OC)C[C@H]1[C@@]1(c3ccccc3)CC[C@@H]2c2ccccc21` (relative stereo) [Example 1, methyl ester of (3aRS, 4SR, 9SR, 9aRS)-4,9-ethano-2-(2-methoxyphenyl)acetyl-9-phenyl-2,3,3a,4,9,9a-hexahydro-1H-benzo[f]isoindole-3a-carboxylic acid], 0.41 µM.
Same read-out and setting: as for `CCOP(=O)(C[C@]12CN(C(=O)Cc3ccccc3OC)C[C@H]1[C@@]1(c3ccccc3)CC[C@@H]2c2ccccc21)OCC` (relative stereo) [Example 22, diethyl ester of [(3aRS, 4SR, 9SR, 9aRS)-4,9-ethano-2-(2-methoxyphenyl)acetyl-9-phenyl-2,3,3a,4,9,9a-hexahydro-1H-benzo[f]isoindol-3a-yl]methylphosphonic acid], the figure is 10 µM.

Staying with this experiment, now noted: human farnesyl transferase purified from THP1 cell cultures; p21 H-ras substrate; 20 minutes at 37° C.; 9 concentrations; read-out: in vitro inhibitory activity IC50.
For the compound `COc1ccccc1C(C(=O)N1C[C@@H]2[C@]3(c4ccccc4)CC[C@@H](c4ccccc43)[C@]2(C(=O)O)C1)=C(C)C` (racemic) [Example 79, (3aRS,4SR,9SR,9aRS)-4,9-ethano-2-[2-(2-methoxyphenyl)-3-methyl-2-butenoyl]-9-phenyl-2,3,3a,4,9,9a-hexahydro-1H-benzo[f]isoindole-3a-carboxylic acid], the IC50 was determined as 5.05 µM.
Same read-out and setting: then `C=C(C(=O)N1C[C@H]2[C@@]3(c4ccccc4)CC[C@H](c4ccccc43)[C@@]2(C(=O)N[C@H](C(=O)OC)c2ccccc2)C1)c1ccccc1OC` [Example 72], with 0.69 µM; and `COC(=O)[C@]12CN(C(=O)Cc3ccccc3OC)C[C@H]1[C@@]1(c3ccccc3)CC[C@@H]2c2cc(C=O)ccc21` (relative stereo) [Example 97, methyl ester of (3aRS,4SR,9SR,9aRS)-4,9-ethano-6-formyl-2-[(2-methoxyphenyl)acetyl]-9-phenyl-2,3,3a,4,9,9a-hexahydro-1H-benzo[f]isoindole-3a-carboxylic acid], with 3.95 µM.
Same read-out and setting: as for `C=C(C(=O)N1C[C@H]2[C@@]3(c4ccccc4)CC[C@H](c4ccccc43)[C@@]2(C(=O)NCc2ccco2)C1)c1ccccc1OC` [Example 94, (3aS,4R,9R,9aS)-N-[(2-furyl)-methyl]-4,9-ethano-2-[(2-methoxyphenyl)prop-2-en-1-oyl]-9-phenyl-2,3,3a,4,9,9a-hexahydro-1H-benzo[f]isoindole-3a-carboxamide], the figure is 0.43 µM; as for `O=C(Cc1cccc2c1OCCC2)N1C[C@H]2[C@@]3(c4ccccc4)CC[C@H](c4ccccc43)[C@@]2(C(=O)O)C1` (relative stereo) [Example 76, (3aRS,4SR,9SR,9aRS)-2-(8-chromanyl)acetyl-4,9-ethano-9-phenyl-2,3,3a,4,9,9a-hexahydro-1H-benzo[f]isoindole-3a-carboxylic acid], 3.65 µM; as for `C=C(C(=O)N1C[C@H]2[C@@]3(c4ccccc4)CC[C@H](c4ccccc43)[C@@]2(C(=O)NCc2ccc(OC)c(OC)c2)C1)c1ccccc1OC` [Example 90, (3aS,4R,9R,9aS)-N-(3,4-dimethoxybenzyl)-4,9-ethano-2-[(2-methoxyphenyl)prop-2-en-1-oyl]-9-phenyl-2,3,3a,4,9,9a-hexahydro-1H-benzo[f]isoindole-3a-carboxamide], 0.97 µM.
The same measure, in the same setting: then `COc1ccccc1C1(C(=O)N2C[C@@H]3[C@]4(c5ccccc5)CC[C@@H](c5ccccc54)[C@]3(C(=O)O)C2)CC1` (racemic) [Example 41, (3aRS,4SR,9SR,9aRS)-4,9-ethano-2-[1-(2-methoxyphenyl)-cyclopropan-1-oyl]-9-phenyl-2,3,3a,4,9,9a-hexa-hydro-1H-benzo[f]isoindole-3a-carboxylic acid], with 1.1 µM; and `C/C=C(/C(=O)N1C[C@H]2[C@@]3(c4ccccc4)CC[C@H](c4ccccc43)[C@@]2(C(=O)OC)C1)c1ccccc1OC` (relative stereo) [Example 77, methyl ester of (3aRS,4SR,9SR,9aRS)-4,9-ethano-2-[2(E)-(2-methoxyphenyl)-2-butenoyl]-9-phenyl-2,3,3a,4,9,9a-hexahydro-1H-benzo[f]isoindole-3a-carboxylic acid], with 6.7 µM; and `COc1ccccc1CC(=O)N1C[C@H]2[C@@]3(c4ccccc4)CC[C@H](c4ccccc43)[C@@]2(C(=O)NCC(=O)O)C1` (relative stereo) [Example 67, N-[(3aRS,4SR,9SR,9aRS)-4,9-ethano-2-(2-methoxy-phenyl)acetyl-9-phenyl-2,3,3a,4,9,9a-hexahydro-1H-benzo[f]isoindol-3a-yl]carbonylglycine], with 0.95 µM.
As to `COc1ccccc1CC(=O)N1C[C@H]2[C@@]3(c4ccccc4)CC[C@H](c4ccccc43)[C@@]2(NC(=O)C(CO)NC(=O)OC(C)(C)C)C1` (some centres unmarked) [Example 14], the IC50 came to 8.7 µM.
Still for that read-out and setting: as for `C=C(C(=O)N1C[C@H]2[C@@]3(c4ccccc4)CC[C@H](c4ccccc43)[C@@]2(C(=O)NC(C#N)c2ccccc2)C1)c1ccccc1OC` (stereo partly drawn) [Example 87, (3aS,4R,9R,9aS)-N-[1-(R,S)-1-cyano-1-phenylmethyl]-4,9-ethano-2-[(2-methoxyphenyl)prop-2-en-1-oyl]-9-phenyl-2,3,3a,4,9,9a-hexahydro-1H-benzo[f]isoindole-3a-carboxamide], the figure is 0.25 µM; as for `C=C(C(=O)N1C[C@H]2[C@@]3(c4ccccc4)CC[C@H](c4ccccc43)[C@@]2(C(=O)NC2CCSc3ccccc32)C1)c1ccccc1OC` (stereo partly drawn) [Example 88, (3aS,4R,9R,9aS)-N-[(R,S)-4-benzo[b]thiopyranyl]-4,9-ethano-2-[(2-methoxyphenyl)prop-2-en-1-oyl]-9-phenyl-2,3,3a,4,9,9a-hexahydro-1H-benzo[f]isoindole-3a-carboxamide], 2.5 µM.
On the same count and under the same terms, then `C=C(C(=O)N1C[C@H]2[C@@]3(c4ccccc4)CC[C@H](c4ccccc43)[C@@]2(C(=O)O)C1)c1ccccc1OC` [Example 39, (3aS,4R,9R,9aS)-4,9-ethano-2-[2-(2-methoxyphenyl)prop-2-en-1-oyl]-9-phenyl-1,2,3,3a,9,9a-hexahydro-1H-benzo[f]isoindole-3a-carboxylic acid], with 0.05 µM; and `C=C(C(=O)N1C[C@H]2[C@@]3(c4ccccc4)CC[C@H](c4ccccc43)[C@@]2(C(=O)NCc2ccccc2)C1)c1ccccc1OC` [Example 71], with 0.5 µM.
As for `O=C(Cc1ccccc1OCc1ccccc1)N1C[C@@H]2[C@]3(c4ccccc4)CC[C@@H](c4ccccc43)[C@]2(C(=O)O)C1` (relative stereo) [Example 64, (3aRS,4SR,9SR,9aRS)-4,9-Ethano-2-(2-benzyloxyphenyl)acetyl-9-phenyl-2,3,3a,4,9,9a-hexahydro-1H-benzo[f]isoindole-3a-carboxylic acid], the IC50 amounted to 0.75 µM.
